Inhibition and IC50 data for 25 compounds are collected here from patent publication US8846704B2, “Thiopyrimidine-based compounds and uses thereof” (YM Biosciences Austraila Pty Ltd, priority 2007, dated 2014).

Holding throughout (type): biochemical
Experiment [1] concerns the target T1, BTK(h) (Homo sapiens, UniProt Q06187).
T1 construct: purchased Upstate Biotechnology (Dundee, UK), KinaseProfiler service
Briefly: Upstate KinaseProfiler enzyme assay, BTK. As to conditions: 500 nM compound; read-out: Percent inhibition at 500 nM BTK(h). As for the experimental part:
(§1) Further enzyme assays were conducted at Upstate Biotechnology (Dundee, UK) in the KinaseProfiler™ Assay system.
(§2) The general protocol is as follows. All kinases are pre-diluted to a 10× working concentration prior to addition into the assay. The composition of the dilution buffer for the kinases is 20 mM MOPS pH 7.0, 1 mM EDTA, 0.1% β-mercaptoethanol, 0.01% Brij-35, 5% glycerol, 1 mg/ml BSA. All substrates are dissolved and diluted to working stocks in de-ionised water.

Experiment [2] deals with T2, human JAK2 (Homo sapiens, UniProt O60674).
T2 construct: The kinase domain of human JAK2 was amplified; GST (N); made in house; host or cells: Sf9 insect cells (baculovirus)
The experiment in a line: Alphascreen tyrosine kinase enzyme assay, JAK2 kinase domain. As to conditions: read-out: JAK2 IC50_nM. In outline: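 JAK2 kinase domain expressed in baculovirus/Sf9 and glutathione-affinity purified. Compounds (final […]) pre-incubated 20 min with enzyme in 10 mM HEPES pH 7.5, MgCl2, NaCl, vanadate, 0.1% Tween 20.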
For orientation: Alpha assays give light when donor and acceptor beads are brought close together.

The target of experiment [3] is T3, Bmx(h) (Homo sapiens, UniProt P51813).
T3 construct: purchased Upstate Biotechnology (Dundee, UK), KinaseProfiler service
T3 sequence (P51813 1-675): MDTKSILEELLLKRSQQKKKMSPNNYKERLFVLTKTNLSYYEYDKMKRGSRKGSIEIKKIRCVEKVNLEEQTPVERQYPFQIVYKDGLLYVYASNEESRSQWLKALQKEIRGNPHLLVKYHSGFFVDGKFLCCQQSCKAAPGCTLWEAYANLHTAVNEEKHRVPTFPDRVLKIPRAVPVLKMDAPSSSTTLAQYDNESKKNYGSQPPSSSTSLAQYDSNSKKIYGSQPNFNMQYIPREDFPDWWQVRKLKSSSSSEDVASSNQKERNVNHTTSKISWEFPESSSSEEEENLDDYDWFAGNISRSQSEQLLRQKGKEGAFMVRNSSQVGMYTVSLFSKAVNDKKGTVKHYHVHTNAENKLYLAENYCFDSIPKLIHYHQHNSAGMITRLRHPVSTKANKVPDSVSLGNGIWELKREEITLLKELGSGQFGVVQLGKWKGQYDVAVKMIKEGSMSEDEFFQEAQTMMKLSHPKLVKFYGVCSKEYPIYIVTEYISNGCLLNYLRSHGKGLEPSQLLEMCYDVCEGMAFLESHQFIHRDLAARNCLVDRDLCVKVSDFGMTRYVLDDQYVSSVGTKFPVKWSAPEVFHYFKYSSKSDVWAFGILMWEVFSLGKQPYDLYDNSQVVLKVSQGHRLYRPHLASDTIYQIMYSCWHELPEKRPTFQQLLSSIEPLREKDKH
Briefly: Upstate KinaseProfiler enzyme assay, Bmx. The following applies: 500 nM compound; read-out: Percent inhibition at 500 nM Bmx(h). How it is done: as §1, §2

The target in experiment [4] is T4, Blk(m) (Mus musculus, UniProt P16277).
T4 construct: purchased Upstate Biotechnology (Dundee, UK), KinaseProfiler service
Briefly: Upstate KinaseProfiler enzyme assay, Blk. The following applies: 500 nM compound; read-out: Percent inhibition at 500 nM Blk(m). As for the experimental part: as §1, §2

The target of experiment [5] is T5, KDR(h) (Homo sapiens, UniProt P35968).
T5 construct: purchased Upstate Biotechnology (Dundee, UK), KinaseProfiler service
The experiment in a line: Upstate KinaseProfiler enzyme assay, KDR. As to conditions: 500 nM compound; read-out: Percent inhibition at 500 nM KDR(h). As for the experimental part:
as §1, §2

Usually inhibition stands for the relative decrease from the control value, in per cent.

T4 sequence (P16277 whole entry): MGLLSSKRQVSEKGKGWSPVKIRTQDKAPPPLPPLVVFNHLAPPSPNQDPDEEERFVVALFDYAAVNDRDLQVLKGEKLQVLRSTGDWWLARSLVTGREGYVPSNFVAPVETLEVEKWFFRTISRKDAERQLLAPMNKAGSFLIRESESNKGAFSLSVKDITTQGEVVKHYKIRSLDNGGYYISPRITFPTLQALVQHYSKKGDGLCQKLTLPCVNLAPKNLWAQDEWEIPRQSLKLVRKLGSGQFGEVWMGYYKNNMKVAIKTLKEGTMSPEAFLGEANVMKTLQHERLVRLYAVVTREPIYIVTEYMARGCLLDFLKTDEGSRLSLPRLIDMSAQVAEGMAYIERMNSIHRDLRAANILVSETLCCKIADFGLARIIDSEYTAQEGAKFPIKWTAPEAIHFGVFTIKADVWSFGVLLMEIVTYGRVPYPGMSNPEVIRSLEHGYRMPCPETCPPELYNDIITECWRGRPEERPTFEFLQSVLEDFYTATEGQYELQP
T2 sequence (O60674 849-1124 limits assumed): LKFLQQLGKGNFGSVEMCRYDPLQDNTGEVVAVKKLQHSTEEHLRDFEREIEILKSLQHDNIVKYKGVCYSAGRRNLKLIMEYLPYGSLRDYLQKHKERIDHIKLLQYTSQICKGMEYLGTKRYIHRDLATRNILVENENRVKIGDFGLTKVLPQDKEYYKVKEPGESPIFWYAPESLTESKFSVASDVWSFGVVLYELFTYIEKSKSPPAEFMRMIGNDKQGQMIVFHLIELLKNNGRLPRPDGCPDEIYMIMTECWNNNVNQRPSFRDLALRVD
T5 sequence (P35968 20-1356): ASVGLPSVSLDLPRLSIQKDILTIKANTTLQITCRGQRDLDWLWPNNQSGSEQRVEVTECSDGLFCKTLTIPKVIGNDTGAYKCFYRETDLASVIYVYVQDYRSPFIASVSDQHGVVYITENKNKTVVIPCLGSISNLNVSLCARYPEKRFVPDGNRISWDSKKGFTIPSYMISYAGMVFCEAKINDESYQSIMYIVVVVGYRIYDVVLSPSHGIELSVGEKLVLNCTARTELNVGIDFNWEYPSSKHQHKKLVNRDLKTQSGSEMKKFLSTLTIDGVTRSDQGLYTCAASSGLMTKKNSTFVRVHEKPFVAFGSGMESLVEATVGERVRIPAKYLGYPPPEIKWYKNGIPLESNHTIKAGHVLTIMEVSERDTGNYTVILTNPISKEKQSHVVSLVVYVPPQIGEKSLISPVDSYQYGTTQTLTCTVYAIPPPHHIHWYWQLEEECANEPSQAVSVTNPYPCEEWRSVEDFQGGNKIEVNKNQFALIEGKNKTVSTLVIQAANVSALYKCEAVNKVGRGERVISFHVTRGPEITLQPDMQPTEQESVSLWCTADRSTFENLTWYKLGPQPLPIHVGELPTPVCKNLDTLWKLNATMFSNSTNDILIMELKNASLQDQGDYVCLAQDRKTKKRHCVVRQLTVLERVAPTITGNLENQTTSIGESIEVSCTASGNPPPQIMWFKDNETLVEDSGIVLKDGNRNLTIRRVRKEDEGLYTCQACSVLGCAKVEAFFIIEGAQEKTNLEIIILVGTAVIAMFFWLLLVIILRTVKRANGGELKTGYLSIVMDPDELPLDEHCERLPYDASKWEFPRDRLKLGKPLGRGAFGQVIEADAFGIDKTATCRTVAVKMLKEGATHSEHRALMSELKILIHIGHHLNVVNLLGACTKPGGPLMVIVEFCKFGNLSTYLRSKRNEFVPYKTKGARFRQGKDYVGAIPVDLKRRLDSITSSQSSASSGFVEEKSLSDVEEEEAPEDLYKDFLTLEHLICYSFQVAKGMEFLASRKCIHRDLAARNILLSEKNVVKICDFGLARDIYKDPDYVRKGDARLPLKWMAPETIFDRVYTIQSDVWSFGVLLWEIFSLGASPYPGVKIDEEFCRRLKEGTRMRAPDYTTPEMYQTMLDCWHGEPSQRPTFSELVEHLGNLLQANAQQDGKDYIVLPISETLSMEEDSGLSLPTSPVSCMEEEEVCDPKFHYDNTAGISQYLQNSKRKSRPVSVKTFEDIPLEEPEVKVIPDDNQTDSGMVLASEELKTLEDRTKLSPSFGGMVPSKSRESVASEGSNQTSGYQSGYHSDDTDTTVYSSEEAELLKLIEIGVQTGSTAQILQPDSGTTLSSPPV
T1 sequence (Q06187 whole entry): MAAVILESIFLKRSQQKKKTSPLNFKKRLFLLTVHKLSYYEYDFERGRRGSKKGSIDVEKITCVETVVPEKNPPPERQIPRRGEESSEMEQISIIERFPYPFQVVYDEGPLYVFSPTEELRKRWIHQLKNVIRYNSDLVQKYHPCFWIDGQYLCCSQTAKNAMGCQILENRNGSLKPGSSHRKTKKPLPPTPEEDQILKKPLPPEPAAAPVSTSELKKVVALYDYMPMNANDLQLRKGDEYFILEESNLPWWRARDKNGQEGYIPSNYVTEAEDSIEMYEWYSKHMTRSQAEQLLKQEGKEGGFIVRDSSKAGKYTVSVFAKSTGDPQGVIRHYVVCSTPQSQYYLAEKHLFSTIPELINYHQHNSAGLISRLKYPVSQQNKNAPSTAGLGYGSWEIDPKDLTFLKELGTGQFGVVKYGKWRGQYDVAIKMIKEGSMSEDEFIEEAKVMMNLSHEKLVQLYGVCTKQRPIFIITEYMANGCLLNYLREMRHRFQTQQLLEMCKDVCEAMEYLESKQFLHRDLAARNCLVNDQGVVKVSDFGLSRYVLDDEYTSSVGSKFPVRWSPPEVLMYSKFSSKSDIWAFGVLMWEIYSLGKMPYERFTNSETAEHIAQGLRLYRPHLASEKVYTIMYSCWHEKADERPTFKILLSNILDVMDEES

As for `C=CC(=O)Nc1ccc(Sc2ccnc(Nc3ccc(N4CCOCC4)cc3)n2)cc1` [Compound 25, N-(4-(2-(4-morpholinophenylamino)pyrimidin-4-ylthio)phenyl)acrylamide], the inhibition at 0.5 µM in experiment [1] turned out to be 83%; in experiment [3], 97%; in experiment [4], 71%. The IC50 in experiment [2] is greater than 1000 nM.
On to `C=CC(=O)NCc1cccc(Sc2ccnc(Nc3ccc(N4CCOCC4)cc3)n2)c1` [Compound 112, N-(3-(2-(4-morpholinophenylamino)pyrimidin-4-ylthio)benzyl)acrylamide], for which the inhibition at 0.5 µM in experiment [1], in experiment [3], in experiment [4] and in experiment [5] was 100% throughout. Also, in experiment [2], the IC50 is greater than 1000 nM.
As to `C=CC(=O)Nc1cccc(Sc2ccnc(Nc3cccc(N4CCOCC4)c3)n2)c1` [Compound 110, N-(3-(2-(3-morpholinophenylao)pyrimidin-4-ylthio)phenyl)acrylamide], the inhibition at 0.5 µM in experiment [1], in experiment [3], in experiment [4] and in experiment [5] was 100% in each case. For the same compound, in experiment [2], the IC50 was greater than 1000 nM.
In the case of `N#Cc1ncn(Cc2ccc(Sc3ccnc(Nc4ccc(N5CCOCC5)cc4)n3)cc2)c1C#N` [Compound 201, 1-(4-(2-(4-morpholinophenylao)pyrimidin-4-ylthio)benzyl)-1H-imidazole-4,5-dicarbonitrile], the inhibition at 0.5 µM in experiment [1], in experiment [3], in experiment [4] and in experiment [5] was 100% throughout. Further, the IC50 in experiment [2] is greater than 1000 nM.
As for `OCc1cccc(Sc2ccnc(Nc3ccc(N4CCOCC4)cc3)n2)c1` [Compound 62, (3-(2-(4-Morpholinophenylamino)pyrimidin-4-ylthio)phenyl)methanol], the IC50 in experiment [2] was less than 500 nM.
For the compound `C=CC(=O)Nc1cccc(Sc2ccnc(Nc3ccc(N4CCOCC4)cc3)n2)c1` [Compound 23, N-(3-(2-(4-morpholinophenylamino)pyrimidin-4-ylthio)phenyl)acrylamide], the inhibition at 0.5 µM is 84% in experiment [1], 100% in experiment [3] and 97% in experiment [4]. In addition, in experiment [2], the IC50 is greater than 1000 nM.
With `Cc1cnc(Nc2ccc(N3CCN(C)CC3)cc2)nc1Sc1ccc(N)cc1` [Compound 244, 4-(4-aophenylthio)-5-methyl-N-(4-(4-methylpiperazin-1-yl)phenyl)pyrimidin-2-ae], in experiment [2], the IC50 is less than 500 nM.
Regarding `C=CC(=O)NCc1ccc(Sc2ccnc(Nc3ccc(N4CCOCC4)cc3)n2)cc1` [Compound 111, N-(4-(2-(4-morpholinophenylamino)pyrimidin-4-ylthio)benzyl)acrylamide], the inhibition at 0.5 µM in experiment [1], in experiment [3], in experiment [4] and in experiment [5] was 100% throughout. Further, the IC50 in experiment [2] is greater than 1000 nM.
For the compound `C=CC(=O)Nc1ccc(Sc2ccnc(Nc3ccc(O)cc3)n2)cc1` [Compound 276, N-(4-(2-(4-hydroxyphenylao)pyrimidin-4-ylthio)phenyl)acrylamide], the IC50 in experiment [2] was greater than 1000 nM.
Same read-out and setting: to `Cc1cnc(Nc2ccc(N3CCOCC3)cc2)nc1Sc1ccc(N)cc1Cl` [Compound 251, 4-(4-ao-2-chlorophenylthio)-5-methyl-N-(4-morpholinophenyl)pyrimidin-2-ae] belongs greater than 1000 nM; to `C=CC(=O)N(C)c1ccc(Sc2nc(Nc3ccc(N4CCOCC4)cc3)ncc2Br)cc1` [Compound 261, N-(4-(5-bromo-2-(4-morpholinophenylao)pyrimidin-4-ylthio)phenyl)-N-methylacrylamide], less than 500 nM; to `COc1ccc(Nc2ncc(C)c(Sc3ccc(N)cc3)n2)cc1OC` [Compound 240, 4-(4-aophenylthio)-N-(3,4-dimethoxyphenyl)-5-methylpyrimidin-2-ae], greater than 1000 nM.
Still for that read-out and setting: to `C=CC(=O)Nc1ccc(Sc2ccnc(Nc3cc(C)cc(C)c3)n2)cc1` [Compound 82, N-(4-(2-(3,5-dimethylphenylao)pyrimidin-4-ylthio)phenyl)acrylamide] belongs greater than 1000 nM.
Same read-out and setting: to `C=CC(=O)Nc1ccc(Sc2nc(Nc3ccc(N4CCOCC4)cc3)ncc2C)cc1C` [Compound 259] belongs greater than 1000 nM.
On to `C=CC(=O)Nc1cccc(Nc2nccc(Sc3ccc(OC)cc3)n2)c1` [Compound 42, N-(3-(4-(4-methoxyphenylthio)pyrimidin-2-ylao)phenyl)acrylamide], for which the inhibition at 0.5 µM stood at 100% in experiment [1], 100% in experiment [3], 59% in experiment [4] and 100% in experiment [5]. Further, the IC50 in experiment [2] is greater than 1000 nM.
For the compound `C=CC(=O)Nc1ccc(Sc2ccnc(Nc3cccc(CO)c3)n2)cc1` [Compound 278, N-(4-(2-(3-(hydroxymethyl)phenylao)pyrimidin-4-ylthio)phenyl)acrylamide], the IC50 in experiment [2] was greater than 1000 nM.
On the same count and under the same terms, the figure for `Cc1cnc(Nc2ccc(N3CCOCC3)cc2)nc1Sc1ccc(N2C(=O)C=C(Br)C2=O)cc1` [Compound 382, 3-bromo-1-(4-(5-methyl-2-(4-morpholinophenylao)pyrimidin-4-ylthio)phenyl)-1H-pyrrole-2,5-dione] is greater than 1000 nM.
Same read-out and setting: the figure for `N#CCC(=O)Nc1cccc(Sc2ccnc(Nc3ccc(N4CCOCC4)cc3)n2)c1` [Compound 24, N-(3-(2-(4-morpholinophenylamino)pyrimidin-4-ylthio)phenyl)-2-cyanoacetamide] is less than 500 nM; for `Cc1cnc(Nc2cccc(O)c2)nc1Sc1ccc(NC(=O)CCl)cc1` [Compound 194, 2-chloro-N-(4-(2-(3-hydroxyphenylao)-5-methylpyrimidin-4-ylthio)phenyl)acetamide] it is greater than 1000 nM.
As to `C=CC(=O)Nc1ccc(Sc2ccnc(Nc3ccc(N4CCOCC4)cc3)n2)cc1OC` [Compound 123, N-(2-methoxy-4-(2-(4-morpholinophenylao)pyrimidin-4-ylthio)phenyl)acrylamide], the inhibition at 0.5 µM in experiment [1], in experiment [3], in experiment [4] and in experiment [5] was 100% each time. Also, the IC50 in experiment [2] is greater than 1000 nM.
As for `C=CC(=O)Nc1cccc(Nc2nccc(Sc3ccccn3)n2)c1` [Compound 2, N-(3-(4-(pyridin-2-ylthio)pyrimidin-2-ylamino)phenyl)acrylamide], the IC50 in experiment [2] was greater than 1000 nM.
In the case of `c1cc(Sc2ccc(Cn3cnnn3)cc2)nc(Nc2ccc(N3CCOCC3)cc2)n1` [Compound 109, 4-(4-((1H-tetrazol-1-yl)methyl)phenylthio)-N-(4-morpholinophenyl)pyrimidin-2-ae], the IC50 in experiment [2] is less than 1000 nM.
Same read-out and setting: to `C=CC(=O)Nc1cccc(Nc2nccc(Sc3ccccc3)n2)c1` [Compound 16, N-(3-(4-(phenylthio)pyrimidin-2-ylamino)phenyl)acrylamide] belongs greater than 1000 nM.
On to `C=CC(=O)Nc1ccc(Sc2ccnc(Nc3cccc(N4CCOCC4)c3)n2)cc1` [Compound 77, N-(4-(2-(3-morpholinophenylao)pyrimidin-4-ylthio)phenyl)acrylamide], for which the inhibition at 0.5 µM in experiment [1], in experiment [3], in experiment [4] and in experiment [5] was 100% in each case. In experiment [2], the IC50 was greater than 1000 nM.
On to `C=CC(=O)Nc1ccc(Sc2nc(Nc3ccc(N4CCCC(O)C4)cc3)ncc2C)cc1` (centres unmarked) [Compound 299, N-(4-(2-(4-(3-hydroxypiperidin-1-yl)phenylao)-5-methylpyrimidin-4-ylthio)phenyl)acrylamide], for which the IC50 in experiment [2] is greater than 1000 nM.
